Measurements taken from US9717718B2, “Anti-inflammatory compounds” (Phytoquest Limited, priority 2011, dated 2017).
“Also recorded” adds a separate entry of the source.

Columns and labels:
α-D-glucosidase (Yeast) = target: T1, α-D-glucosidase (Yeast) (Saccharomyces cerevisiae, UniProt P53341); experiment: Glycosidase assay, α-D-glucosidase (Yeast); format: biochemical; conditions: 0.2 mM, negative value = stabilisation or promotion of enzyme activity
T1 construct: purchased Sigma
Protocol: (§1) All enzymes and para-nitrophenyl substrates were purchased from Sigma, with the exception of beta-mannosidase which came from Megazyme. Enzymes were assayed at 27° C. in 0.1 M citric acid/0.2M disodium hydrogen phosphate buffers at the optimum pH for the enzyme. The incubation mixture consisted of 10 μl enzyme solution, 10 μl of 1 mg/ml aqueous solution of sample and 50 μl of the appropriate 5 mM para-nitrophenyl substrate made up in buffer at the optimum pH for the enzyme. […] Final absorbances were read at 405 nm using a Versamax microplate reader (Molecular Devices). Assays were carried out in triplicate, and the values given are means of the three replicates per assay.

[1] = tested on: α-D-glucosidase (Bacillus); experiment: Glycosidase assay, α-D-glucosidase (Bacillus); format: biochemical; conditions: 0.2 mM
Protocol: as §1

α-D-glucosidase (Rice) = target: T2, α-D-glucosidase (Rice) (Oryza sativa subsp. japonica, UniProt Q653V7); experiment: Glycosidase assay, α-D-glucosidase (Rice); format: biochemical; conditions: 0.2 mM
T2 construct: purchased Sigma
Protocol: (§2) Enzymes were assayed at 27° C. in 0.1 M citric acid/0.2M disodium hydrogen phosphate buffers at the optimum pH for the enzyme. The incubation mixture consisted of 10 μl enzyme solution, 10 μl of 1 mg/ml aqueous solution of sample and 50 μl of the appropriate 5 mM para-nitrophenyl substrate made up in buffer at the optimum pH for the enzyme. […] Final absorbances were read at 405 nm using a Versamax microplate reader (Molecular Devices). Assays were carried out in triplicate, and the values given are means of the three replicates per assay.

β-D-glucosidase = experiment: Glycosidase assay, β-D-glucosidase; format: biochemical; conditions: 0.2 mM
Protocol: as §1

α-D-galactosidase = experiment: Glycosidase assay, α-D-galactosidase; format: biochemical; conditions: 0.2 mM; negative value = stabilisation or promotion
Protocol: as §1

β-D-galactosidase = experiment: Glycosidase assay, β-D-galactosidase; format: biochemical; conditions: 0.2 mM
Protocol: as §1

α-L-fucosidase = experiment: Glycosidase assay, α-L-fucosidase; format: biochemical; conditions: 0.2 mM
Protocol: as §1

α-D-mannosidase = experiment: Glycosidase assay, α-D-mannosidase; format: biochemical; conditions: 0.2 mM; for percentage inhibition, α-D-mannosidase: negative value = stabilisation or promotion
Protocol: as §1

β-D-mannosidase = experiment: Glycosidase assay, β-D-mannosidase; format: biochemical; conditions: 0.2 mM; negative value = stabilisation or promotion
Protocol: as §2

Naringinase = experiment: Glycosidase assay, Naringinase; format: biochemical; conditions: 0.2 mM
Protocol: as §2

[2] = tested on: N-acetyl-β-D-gluc (Bovine kidney); experiment: Glycosidase assay, N-acetyl-β-D-gluc (Bovine kidney); format: biochemical; conditions: 0.2 mM; negative value = stabilisation or promotion
Protocol: as §1

[3] = tested on: N-acetyl-β-D-gluc (Jack bean); experiment: Glycosidase assay, N-acetyl-β-D-gluc (Jack bean); format: biochemical; conditions: 0.2 mM; negative value = stabilisation or promotion
Protocol: as §1

[4] = tested on: N-acetyl-β-D-hexosaminidase; experiment: Glycosidase assay, N-acetyl-β-D-hexosaminidase; format: biochemical; conditions: 0.2 mM; negative value = stabilisation or promotion
Protocol: as §2

Amyloglucosidase = target: T3, Amyloglucosidase (Aspergillus niger, UniProt P69328); experiment: Glycosidase assay, Amyloglucosidase; format: biochemical; conditions: 0.2 mM
T3 construct: purchased Sigma
Protocol: as §2

glucosidases = experiment: Glycosidase panel, summary in words for glucosidases; format: biochemical; conditions: 0.2 mM
Protocol: as §1

[5] = tested on: equine endometrial explant, Prostaglandin F2α (PGF2α) secretion; experiment: In vitro equine endometrial explant culture, LPS-stimulated PGF2α secretion; format: cell-based, horse
Protocol: The efficacy of ido-BR1 as an anti-inflammatory agent in a model of mucosal inflammation was tested. The model utilised was previously optimised and established (D M Nash, E A. Lane, S Herath and I M Sheldon (2008) Endometrial Explant Culture for Characterizing Equine Endometritis. American Journal of Reproductive Immunology. 59: 105-117). The model is comprised of an in vitro equine endometrial explant tissue culture system. […]
Uterine tissue was collected from mares at an abattoir, the endometrial (mucosal) surface was dissected out, […] placed in culture as explants. […] The secretion of PGF2α is measured at 24 and 72 h after challenge with LPS in order to represent the innate and chronic immune response respectively.
Explants were treated with control (media alone) or, in order to determine whether ido-BR1 affected spontaneous PGF2α, 0.5, 25 or 100 μg/ml ido-BR1 alone. […] The secretion of PGF2α was measured at 24 and 72 h after treatments were applied. […]

β-glucuronidase = conditions: 0.2 mM
Protocol: as §1

T1 sequence (P53341 whole entry): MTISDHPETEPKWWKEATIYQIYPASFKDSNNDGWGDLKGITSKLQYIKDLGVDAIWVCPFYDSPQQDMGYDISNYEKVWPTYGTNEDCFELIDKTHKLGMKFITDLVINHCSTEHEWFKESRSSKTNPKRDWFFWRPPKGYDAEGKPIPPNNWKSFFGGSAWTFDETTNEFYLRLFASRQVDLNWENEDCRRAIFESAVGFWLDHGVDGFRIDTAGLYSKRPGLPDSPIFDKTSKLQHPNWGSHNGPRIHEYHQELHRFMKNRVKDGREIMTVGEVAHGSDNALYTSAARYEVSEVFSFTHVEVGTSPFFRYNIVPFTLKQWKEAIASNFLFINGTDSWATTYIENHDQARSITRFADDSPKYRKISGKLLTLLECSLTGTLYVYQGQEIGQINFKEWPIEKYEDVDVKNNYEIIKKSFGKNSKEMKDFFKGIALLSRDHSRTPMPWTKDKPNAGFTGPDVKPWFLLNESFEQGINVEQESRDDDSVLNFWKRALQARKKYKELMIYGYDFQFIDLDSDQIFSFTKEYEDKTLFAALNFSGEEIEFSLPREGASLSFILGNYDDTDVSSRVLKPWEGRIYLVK
T3 sequence (P69328 25-640): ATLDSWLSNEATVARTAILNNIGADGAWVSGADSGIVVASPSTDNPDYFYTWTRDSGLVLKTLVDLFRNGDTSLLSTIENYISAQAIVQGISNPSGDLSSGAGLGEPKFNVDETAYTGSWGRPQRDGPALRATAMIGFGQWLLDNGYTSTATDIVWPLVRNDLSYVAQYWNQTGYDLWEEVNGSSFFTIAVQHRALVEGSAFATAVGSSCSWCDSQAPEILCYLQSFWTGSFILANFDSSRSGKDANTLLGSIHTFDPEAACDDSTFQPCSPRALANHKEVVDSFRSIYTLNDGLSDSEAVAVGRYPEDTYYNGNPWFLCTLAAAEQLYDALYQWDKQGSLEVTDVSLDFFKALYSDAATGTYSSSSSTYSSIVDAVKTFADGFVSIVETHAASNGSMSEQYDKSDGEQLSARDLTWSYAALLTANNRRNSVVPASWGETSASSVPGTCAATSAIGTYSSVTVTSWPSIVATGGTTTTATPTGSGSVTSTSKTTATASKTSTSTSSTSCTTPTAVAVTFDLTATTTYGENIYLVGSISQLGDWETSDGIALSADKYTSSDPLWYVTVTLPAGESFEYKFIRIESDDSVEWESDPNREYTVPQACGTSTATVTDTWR
T2 sequence (Q653V7 34-885): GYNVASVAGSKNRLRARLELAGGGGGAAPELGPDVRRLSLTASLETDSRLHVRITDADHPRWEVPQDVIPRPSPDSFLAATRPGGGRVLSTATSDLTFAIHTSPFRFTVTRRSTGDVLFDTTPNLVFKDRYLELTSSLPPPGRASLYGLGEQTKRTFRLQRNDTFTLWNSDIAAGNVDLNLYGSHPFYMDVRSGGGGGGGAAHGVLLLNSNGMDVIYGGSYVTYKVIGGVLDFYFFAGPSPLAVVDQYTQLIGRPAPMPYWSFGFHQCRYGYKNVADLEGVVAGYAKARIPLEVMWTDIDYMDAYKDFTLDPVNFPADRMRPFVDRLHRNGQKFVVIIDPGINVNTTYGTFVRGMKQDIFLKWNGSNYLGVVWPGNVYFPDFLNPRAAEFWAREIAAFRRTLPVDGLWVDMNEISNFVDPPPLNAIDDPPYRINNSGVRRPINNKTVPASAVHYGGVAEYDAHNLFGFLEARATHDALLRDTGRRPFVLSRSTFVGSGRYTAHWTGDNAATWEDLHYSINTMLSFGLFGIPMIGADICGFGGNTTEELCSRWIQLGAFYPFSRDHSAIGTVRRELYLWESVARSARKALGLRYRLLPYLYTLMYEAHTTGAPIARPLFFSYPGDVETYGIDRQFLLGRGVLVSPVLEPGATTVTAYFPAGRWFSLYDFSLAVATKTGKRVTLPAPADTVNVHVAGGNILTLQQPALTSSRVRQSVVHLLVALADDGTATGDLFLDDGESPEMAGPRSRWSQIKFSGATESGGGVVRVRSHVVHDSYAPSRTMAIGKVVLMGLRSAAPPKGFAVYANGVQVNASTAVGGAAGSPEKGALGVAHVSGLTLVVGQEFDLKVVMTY

Row | Compound | percentage inhibition, α-D-glucosidase (Bacillus) [1] [%] | percentage inhibition, β-D-glucosidase (β-D-glucosidase) [%] | percentage inhibition, α-D-galactosidase (α-D-galactosidase) [%] | percentage inhibition, β-D-galactosidase (β-D-galactosidase) [%] | percentage inhibition, α-D-mannosidase (α-D-mannosidase) [%] | percentage inhibition, β-D-mannosidase (β-D-mannosidase) [%] | percentage inhibition, N-acetyl-β-D-gluc (Bovine kidney) [2] [%] | percentage inhibition, N-acetyl-β-D-gluc (Jack bean) [3] [%] | inhibition of glucosidases (in words) (glucosidases) | further results
1 | OC[C@H]1NC[C@H](O)[C@@H](O)[C@@H]1O [DNJ, reference compound] | 99.5 | 63.7 | −3.3 | 0.4 | 26.6 | −19.0 | −0.8 | 2.8 | potent inhibition | percentage inhibition, α-D-glucosidase (Yeast) (α-D-glucosidase (Yeast)): 35.7%; percentage inhibition, α-D-glucosidase (Rice) (α-D-glucosidase (Rice)): 99.6%; percentage inhibition, α-L-fucosidase (α-L-fucosidase): 5.9%; percentage inhibition, Naringinase (Naringinase): 20.8%; percentage inhibition, N-acetyl-β-D-hexosaminidase [4]: −5.5%; percentage inhibition, Amyloglucosidase (Amyloglucosidase): 31.7%
2 | O=C(O)[C@@H]1NC[C@H](O)[C@@H](O)[C@@H]1O [ido-BR1, (2R,3R,4R,5S)-3,4,5-trihydroxypiperidine-2-carboxylic acid] | 26.4 | 6.1 | −2.7 | 1.0 | −28.4 | −4.4 | 5.5 | −4.5 | very weakly inhibitory | inhibition at 200 µM (α-D-glucosidase (Yeast); read-out: percentage inhibition, α-D-glucosidase (Yeast)): 4.7%; effect on alpha-mannosidase activity (in words) (α-D-mannosidase): promote alpha-mannosidase activity slightly; PGF2α secretion by LPS-challenged explants versus control (abrogation of inflammation) ([5]; 3.0 μg/ml LPS with 0.5, 25 or 100 μg/ml ido-BR1, 24 h): not significantly different to the control; also recorded: abrogated inflammation in the explants; abrogation of LPS-stimulated PGF2α secretion ([5]; 3.0 μg/ml LPS with ido-BR1, 72 h): not significant; inhibition of glucuronidase (in words) (β-glucuronidase): not inhibitory; percentage inhibition, β-glucuronidase (β-glucuronidase): 2.5%
